“And” between values parts separate entries of the source, which are not always exact repeats. Equal entries are not always repeated. Toxic doses and inconclusive results are not listed.

The test system of the assay is P388 leukemia ip, CD2F1 mice, survival T/C. In words: NCI In Vivo Anticancer Drug Screen. Data for tumor model P388 Leukemia (intraperitoneal) in CD2F1 (CDF1) mice. Particulars: endpoint: median survival time, higher = longer survival. Summed up:
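Mice carrying the transplanted tumor received test compound or vehicle. Survival was recorded in each group, and the value is the treated-group measurement divided by that of the vehicle-treated control group.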

The mark [1] stands for this setting: dose: 50.0 mg/kg/injection, schedule: Q01DX009 (ip), vehicle: saline with Tween-80.
[2] abbreviates: dose: 50.0 mg/kg/injection, schedule: Q01DX005 (ip), vehicle: Klucel (hydroxypropylcellulose) (HPC).
Where [3] appears, read: dose: 100.0 mg/kg/injection, schedule: Q01DX005 (ip), vehicle: Klucel (hydroxypropylcellulose) (HPC).
Setting [4] is: dose: 200.0 mg/kg/injection, schedule: Q01DX005 (ip), vehicle: Klucel (hydroxypropylcellulose) (HPC).
Setting [5] is: dose: 60.0 mg/kg/injection, schedule: Q01DX005 (ip), vehicle: Klucel (hydroxypropylcellulose) (HPC).
Setting [6] is: dose: 240.0 mg/kg/injection, schedule: Q01DX005 (ip), vehicle: Klucel (hydroxypropylcellulose) (HPC).
The mark [7] stands for this setting: dose: 120.0 mg/kg/injection, schedule: Q01DX005 (ip), vehicle: Klucel (hydroxypropylcellulose) (HPC).
[8] abbreviates: dose: 25.0 mg/kg/injection, schedule: Q01DX005 (ip), vehicle: saline with Tween-80.
The mark [9] stands for this setting: dose: 50.0 mg/kg/injection, schedule: Q01DX005 (ip), vehicle: saline with Tween-80.
The mark [10] stands for this setting: dose: 100.0 mg/kg/injection, schedule: Q01DX005 (ip), vehicle: saline with Tween-80.
The mark [11] stands for this setting: dose: 200.0 mg/kg/injection, schedule: Q01DX005 (ip), vehicle: saline with Tween-80.
[12] abbreviates: dose: 100.0 mg/kg/injection, schedule: Q04DX002 (ip), vehicle: saline with Tween-80.

Take `CC1(C)CC(=O)C(CC2=C(N)CC(C)(C)CC2=O)=C(N)C1`: the T/C (dose: 25.0 mg/kg/injection, schedule: Q04DX003 (ip), vehicle: Klucel (hydroxypropylcellulose) (HPC)) is 95 % of control; the T/C (dose: 50.0 mg/kg/injection, schedule: Q04DX003 (ip), vehicle: Klucel (hydroxypropylcellulose) (HPC)) was 101 % of control; the T/C (dose: 100.0 mg/kg/injection, schedule: Q04DX003 (ip), vehicle: Klucel (hydroxypropylcellulose) (HPC)) was 94 % of control; the T/C (dose: 200.0 mg/kg/injection, schedule: Q04DX003 (ip), vehicle: Klucel (hydroxypropylcellulose) (HPC)) was 95 % of control.
On to `CC(N)C(=O)NC(C)P(=O)(O)O` (stereo not given), for which the T/C under setting [1] is 102 % of control; the T/C (dose: 100.0 mg/kg/injection, schedule: Q01DX009 (ip), vehicle: saline with Tween-80) was 101 % of control; the T/C (dose: 200.0 mg/kg/injection, schedule: Q01DX009 (ip), vehicle: saline with Tween-80) was 101 % of control.
On to `CC(=O)Nc1cc(Cl)cc2c1-c1ccc(Cl)cc1C2N(C)C` (stereo not given), for which the T/C reads like this: under setting [2], 96 % of control; under setting [3], 100 % of control; under setting [4], 87 % of control.
With `CC(C)(C)NC1=NCCNC(c2ccccc2)=C1`, the T/C is, setting by setting: (dose: 6.25 mg/kg/injection, schedule: Q01DX005 (ip), vehicle: saline) 98 % of control; (dose: 12.5 mg/kg/injection, schedule: Q01DX005 (ip), vehicle: saline) 100 % of control; (dose: 25.0 mg/kg/injection, schedule: Q01DX005 (ip), vehicle: saline) 92 % of control.
With `COc1c2occc2c(NC(=O)C(F)(F)F)c2ccc(=O)oc12`, the T/C (dose: 100.0 mg/kg/injection, schedule: Q04DX002 (ip), vehicle: saline) is 100 % of control and the T/C (dose: 200.0 mg/kg/injection, schedule: Q04DX002 (ip), vehicle: saline) was 101 % of control.
For `Cc1ccc(N(CN2C(=O)CCC2=O)CS(=O)(=O)c2ccc(Cl)cc2)cc1`, the T/C by setting is: (dose: 15.0 mg/kg/injection, schedule: Q01DX005 (ip), vehicle: Klucel (hydroxypropylcellulose) (HPC)) 107 % of control; (dose: 30.0 mg/kg/injection, schedule: Q01DX005 (ip), vehicle: Klucel (hydroxypropylcellulose) (HPC)) 91 % of control; under setting [5], 93 % of control and 95 % of control; under setting [6], 90 % of control.
`COc1cc(NCC2COc3c(ccc(OC)c3OC)C2=O)c([N+](=O)[O-])cc1OC` (stereo not given): the T/C was 90 % of control under setting [5], 92 % of control under setting [7] and 86 % of control under setting [6].
`Cc1cc(OC(=O)Nc2cc([N+](=O)[O-])ccc2C)c(C)cc1I`: the T/C was 99 % of control (dose: 12.5 mg/kg/injection, schedule: Q01DX009 (ip), vehicle: saline); 97 % of control (dose: 25.0 mg/kg/injection, schedule: Q01DX009 (ip), vehicle: saline); 100 % of control and 91 % of control (dose: 50.0 mg/kg/injection, schedule: Q01DX009 (ip), vehicle: saline); 92 % of control (dose: 100.0 mg/kg/injection, schedule: Q01DX009 (ip), vehicle: saline); 100 % of control (dose: 200.0 mg/kg/injection, schedule: Q01DX009 (ip), vehicle: saline).
Turning to `COC1C(CO)OC(n2c3c(Cl)cccc3c3c4c(c5c6cccc(Cl)c6[nH]c5c32)C(=O)NC4=O)C(O)C1O` (stereo not given), the T/C is 155 % of control under setting [8]; 152 % of control (dose: 50.0 mg/kg/injection, schedule: Q01DX005 (ip), vehicle: distilled water + Tween-80); 155 % of control under setting [9]; 158 % of control (dose: 100.0 mg/kg/injection, schedule: Q01DX005 (ip), vehicle: distilled water + Tween-80); 155 % of control under setting [10]; 152 % of control (dose: 200.0 mg/kg/injection, schedule: Q01DX005 (ip), vehicle: distilled water + Tween-80). In addition, the T/C is 159 % of control under setting [11] and 182 % of control (dose: 400.0 mg/kg/injection, schedule: Q01DX005 (ip), vehicle: saline with Tween-80).
With `CC(C)(C)N1CC(C(=O)c2ccccc2)C1c1ccccc1` (stereo not given), the T/C is, setting by setting: (dose: 50.0 mg/kg/injection, schedule: Q04DX003 (ip), vehicle: saline with Tween-80) 100 % of control; (dose: 100.0 mg/kg/injection, schedule: Q04DX003 (ip), vehicle: saline with Tween-80) 98 % of control; (dose: 200.0 mg/kg/injection, schedule: Q04DX003 (ip), vehicle: saline with Tween-80) 97 % of control; (dose: 400.0 mg/kg/injection, schedule: Q04DX003 (ip), vehicle: saline with Tween-80) 97 % of control.
With `Clc1ccc2c(c1)[N+](=c1ccc3nc4cc(Cl)ccc4sc-3c1)c1ccccc1S2.[Cl][Cu][Cl]`, the T/C under setting [5] was 95 % of control, the T/C under setting [7] is 91 % of control and the T/C under setting [6] was 88 % of control.
For `COc1ccc(CC#N)c(C(=O)O)c1`, the T/C by setting is: under setting [2], 106 % of control; under setting [3], 103 % of control; under setting [4], 101 % of control.
On the same counts, the results for `O=C(O)c1c2c(nc3ccccc13)-c1ccccc1C2` are 102 % of control, 93 % of control and 89 % of control.
On to `O=C(OCCN1CCN(CCOC(=O)C(Cl)(c2ccccc2)c2ccccc2)CC1)C(Cl)(c1ccccc1)c1ccccc1`, for which the T/C is 95 % of control (dose: 6.25 mg/kg/injection, schedule: Q01DX005 (ip), vehicle: saline with Tween-80); 93 % of control (dose: 12.5 mg/kg/injection, schedule: Q01DX005 (ip), vehicle: saline with Tween-80); 95 % of control under setting [8]; 90 % of control under setting [10].
As to `CCOC(=O)COc1cc2c(cc1C(CC)c1ccccc1)OCO2` (stereo not given), the T/C runs as follows: under setting [2], 97 % of control; under setting [3], 102 % of control; under setting [4], 102 % of control.
Regarding `CN(C)CCN1c2ccccc2Oc2ccccc21`, the T/C is, setting by setting: (dose: 50.0 mg/kg/injection, schedule: Q01DX005 (ip), vehicle: saline) 104 % of control; (dose: 100.0 mg/kg/injection, schedule: Q01DX005 (ip), vehicle: saline) 95 % of control.
For the compound `O=C(O)/C=C/CCCCCCO`, the T/C is 91 % of control (dose: 100.0 mg/kg/injection, schedule: Q04DX002 (ip), vehicle: saline + alcohol); 100 % of control (dose: 200.0 mg/kg/injection, schedule: Q04DX002 (ip), vehicle: saline + alcohol); 106 % of control (dose: 400.0 mg/kg/injection, schedule: Q04DX002 (ip), vehicle: saline + alcohol).
Regarding `CC(C)(C)SSCCN`, the T/C is 103 % of control under setting [9] and 109 % of control under setting [10].
For the compound `COCC#CCN(C)C`, the T/C (dose: 60.0 mg/kg/injection, schedule: Q01DX005 (ip), vehicle: saline) is 95 % of control; the T/C (dose: 120.0 mg/kg/injection, schedule: Q01DX005 (ip), vehicle: saline) was 99 % of control; the T/C (dose: 240.0 mg/kg/injection, schedule: Q01DX005 (ip), vehicle: saline) was 95 % of control.
Regarding `CCN(CC)CCNc1cc(O)c2c(c1O)C(=O)c1ccccc1C2=O`, the T/C is, setting by setting: (dose: 25.0 mg/kg/injection, schedule: Q04DX002 (ip), vehicle: saline with Tween-80) 105 % of control; (dose: 50.0 mg/kg/injection, schedule: Q04DX002 (ip), vehicle: saline with Tween-80) 98 % of control; under setting [12], 103 % of control and 107 % of control.
For the compound `COc1cc2c(c(OC)c1OC)C(=O)/C(=C\c1ccccc1)O2`, the T/C by setting is: (dose: 3.13 mg/kg/injection, schedule: Q01DX009 (ip), vehicle: saline with Tween-80) 105 % of control; (dose: 6.25 mg/kg/injection, schedule: Q01DX009 (ip), vehicle: saline with Tween-80) 101 % of control and 102 % of control and 95 % of control; (dose: 12.5 mg/kg/injection, schedule: Q01DX009 (ip), vehicle: saline with Tween-80) 100 % of control and 105 % of control and 114 % of control; (dose: 25.0 mg/kg/injection, schedule: Q01DX009 (ip), vehicle: saline with Tween-80) 105 % of control and 121 % of control and 93 % of control; under setting [1], 118 % of control and 96 % of control.
`Cc1ccc(C2(C(=O)C=[N+]=[N-])OC2(C)C)cc1` (stereo not given): the T/C runs as follows: under setting [8], 99 % of control; under setting [9], 99 % of control; under setting [10], 115 % of control; under setting [11], 108 % of control.
Take `Nc1[nH]cnc(=S)c1N`: the T/C under setting [12] is 106 % of control; the T/C (dose: 200.0 mg/kg/injection, schedule: Q04DX002 (ip), vehicle: saline with Tween-80) is 102 % of control; the T/C (dose: 400.0 mg/kg/injection, schedule: Q04DX002 (ip), vehicle: saline with Tween-80) was 106 % of control.

These data come from PubChem BioAssay AID330 (DTP/NCI, 2004).
